Reference: BindingDB's records for doi:10.1016/j.bmcl.2011.11.077 (The Broad Institute Probe Development Center, 2011)

How the values were obtained:
[1] = Activation of GFP-tagged HIF1alpha expressed in human U2OS cells assessed as HIF1alpha nuclear translocation by high content imaging assay
[2] = Activation of human HIF1alpha expressed in human U2OS cells assessed as increase in VEGF expression by RT-PCR analysis
[3] = target: T1, Hypoxia-inducible factor 1-alpha (Homo sapiens, UniProt Q16665); test: Activation of human HIF1alpha expressed in DFX-induced human U2OS cells incubated for 30 mins prior to DFX-induction measured after overnight incubation by luciferase reporter gene assay
T1 sequence (Q16665 whole entry): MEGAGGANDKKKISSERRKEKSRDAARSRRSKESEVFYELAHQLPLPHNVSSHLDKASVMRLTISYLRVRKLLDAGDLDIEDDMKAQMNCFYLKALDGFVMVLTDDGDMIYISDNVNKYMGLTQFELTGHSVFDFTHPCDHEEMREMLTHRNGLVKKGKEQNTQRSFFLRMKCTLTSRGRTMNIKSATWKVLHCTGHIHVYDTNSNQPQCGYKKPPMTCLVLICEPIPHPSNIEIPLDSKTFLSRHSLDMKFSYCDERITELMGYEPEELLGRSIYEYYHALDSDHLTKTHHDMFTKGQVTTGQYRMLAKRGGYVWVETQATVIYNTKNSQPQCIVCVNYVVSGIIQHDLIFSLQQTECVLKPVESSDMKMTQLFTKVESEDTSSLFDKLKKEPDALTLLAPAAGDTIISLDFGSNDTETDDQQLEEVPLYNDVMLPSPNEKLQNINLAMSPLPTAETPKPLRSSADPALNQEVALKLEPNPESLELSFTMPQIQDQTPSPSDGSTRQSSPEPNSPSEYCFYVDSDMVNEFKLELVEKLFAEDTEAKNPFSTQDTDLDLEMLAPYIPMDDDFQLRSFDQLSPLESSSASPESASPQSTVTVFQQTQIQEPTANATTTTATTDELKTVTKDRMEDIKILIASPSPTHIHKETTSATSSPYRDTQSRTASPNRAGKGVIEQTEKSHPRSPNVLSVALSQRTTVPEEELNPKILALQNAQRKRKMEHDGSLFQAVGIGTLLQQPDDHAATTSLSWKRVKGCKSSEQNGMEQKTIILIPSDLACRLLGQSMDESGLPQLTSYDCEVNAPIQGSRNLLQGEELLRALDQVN

[4] = target: T1, Hypoxia-inducible factor 1-alpha; test: Activation of human HIF1alpha expressed in DFX-induced human U2OS cells incubated for 30 mins prior to DFX-induction measured after overnight incubation by luciferase reporter gene assay in presence of 50 uM zinc
[5] = target: T1, Hypoxia-inducible factor 1-alpha; test: Activation of human HIF1alpha expressed in DFX-induced human U2OS cells incubated for 30 mins prior to DFX-induction measured after overnight incubation by luciferase reporter gene assay in presence of 50 uM iron

| EC50 [1] [µM] | EC50 [2] [µM] | EC50 [3] [µM] | EC50 [4] [µM] | EC50 [5] [µM] | SMILES |
| --- | --- | --- | --- | --- | --- |
| 6.27 | 8.12 | 14.2 |  |  | c1ccc(-c2nnc(-c3ccccn3)nc2NCCCN2CCOCC2)cc1 |
| 4.27 | 6.21 | 12.7 |  |  | c1ccc(-c2nnc(-c3ccccn3)nc2NCC2CC2)cc1 |
|  |  | 8.85 |  |  | CCCCNC(=O)c1cc(-c2ccc(F)cc2)on1 |
| 3.73 | 3.67 | 4.74 |  |  | COc1ccc(CNc2nc(-c3ccccn3)nnc2-c2ccccc2)cc1 |
| 9.54 | 3.08 | 6.67 |  |  | Cc1ccccc1CNc1nc(-c2ccccn2)nnc1-c1ccccc1 |
| 9.08 | 10 | 20.8 |  |  | c1ccc(-c2nnc(-c3ccccn3)nc2NCCN2CCOCC2)cc1 |
| 2.3 | 1.85 | 2.96 |  |  | Cc1ccc(CNc2nc(-c3ccccn3)nnc2-c2ccccc2)cc1C |
| 2.06 | 2.55 | 4.17 |  |  | C[C@H](Nc1nc(-c2ccccn2)nnc1-c1ccccc1)C1CCCCC1 |
| 11.6 | 12.1 | 22.9 |  |  | OCC1CCN(c2nc(-c3ccccn3)nnc2-c2ccccc2)CC1 |
| 16.6 | 21.5 | 24.9 |  |  | O=C(NCC1CC1)c1cc(-c2ccccc2)on1 |
| 7.62 | 6.45 | 27.8 |  |  | c1ccc(-c2nnc(-c3ccccn3)nc2NCc2ccccn2)cc1 |
| 9.84 | 9.6 | 17.5 |  |  | c1ccc(-c2nnc(-c3ccccn3)nc2NCCc2ccccn2)cc1 |
| 5.41 | 7.55 | 22.4 |  |  | Cc1cccc(Nc2nc(-c3ccccn3)nnc2-c2ccccc2)n1 |
| 3.04 | 7.57 | 22 |  |  | O=C(NCCCCO)c1cc(-c2ccccc2)on1 |
| 5.02 | 4.35 | 26 |  |  | c1ccc(-c2nnc(-c3ccccn3)nc2NCc2cccnc2)cc1 |
| 6.27 | 3.92 | 4.15 |  |  | COc1cccc(CNc2nc(-c3ccccn3)nnc2-c2ccccc2)c1 |
| 10.5 | 10.6 | 25 |  |  | OCCCNc1nc(-c2ccccn2)nnc1-c1ccccc1 |
| 0.6 | 1.12 | 1.71 |  |  | CC(C)(C)c1ccc(CNc2nc(-c3ccccn3)nnc2-c2ccccc2)cc1 |

| EC50 [1] [µM] | EC50 [2] [µM] | EC50 [3] [µM] | EC50 [4] [µM] | EC50 [5] [µM] | SMILES |
| --- | --- | --- | --- | --- | --- |
| 1.19 | 2.6 | 4.58 |  |  | Cc1ccc(CNc2nc(-c3ccccn3)nnc2-c2ccccc2)cc1 |
| 9.82 | 9.06 | 7.46 |  |  | CN(C)c1nc(-c2ccccn2)nnc1-c1ccccc1 [MLS000541553] |
| 4.62 | 6.15 | 7.13 |  |  | C=CCNc1nc(-c2ccccn2)nnc1-c1ccccc1 [6-phenyl-N-prop-2-enyl-3-(2-pyridinyl)-1,2,4-triazin-5-amine] |
| 1.49 | 2.77 | 2.33 |  |  | Clc1cccc(CNc2nc(-c3ccccn3)nnc2-c2ccccc2)c1 |
| 0.5 | 2.57 | 2.49 |  |  | c1ccc(-c2cccc(CNc3nc(-c4ccccn4)nnc3-c3ccccc3)c2)cc1 |
| 1.4 | 1.63 | 1.12 | 5.01 | 15.6 | c1ccc(-c2ccc(CNc3nc(-c4ccccn4)nnc3-c3ccccc3)cc2)cc1 |
| 7.67 | 8.38 | 29.5 |  |  | c1ccc(-c2nnc(-c3ccccn3)nc2NCC2CCOCC2)cc1 |
| 20 | 28 | 23.9 |  |  | O=C(NCCCN1CCOCC1)c1cc(-c2ccccc2)on1 |
| 10.2 | 8.69 | 21.9 |  |  | CN1CCN(c2nc(-c3ccccn3)nnc2-c2ccccc2)CC1 |
| 4.46 | 3.26 | 7.64 |  |  | c1ccc(-c2nnc(-c3ccccn3)nc2Nc2cnc3ccccc3n2)cc1 |
| 7.72 | 15.8 | 8.67 |  |  | O=C(NCCCn1ccnc1)c1cc(-c2ccccc2)on1 [MLS000708948] |
| 3.82 | 2.48 | 2.97 |  |  | CC(C)(C)CCNc1nc(-c2ccccn2)nnc1-c1ccccc1 |
| 4.8 | 4.48 | 7.74 |  |  | c1ccc(CNc2nc(-c3ccccn3)nnc2-c2ccccc2)cc1 [GNF-Pf-100] |
| 1.2 | 1.88 | 6.73 |  |  | C[C@@H](Nc1nc(-c2ccccn2)nnc1-c1ccccc1)C1CCCCC1 |
| 2.39 | 2.91 | 5.41 |  |  | Cc1cccc(CNc2nc(-c3ccccn3)nnc2-c2ccccc2)c1 |
| 9.82 | 8.72 | 3.63 |  |  | c1ccc(CCNc2nc(-c3ccccn3)nnc2-c2ccccc2)cc1 |
| 2.46 | 3.45 | 4.74 |  |  | c1ccc(-c2nnc(-c3ccccn3)nc2NCC2CCCCC2)cc1 |
|  |  | 17.8 |  |  | CC(=O)N(O)CCCCCNC(=O)CCC(=O)N(O)CCCCCNC(=O)CCC(=O)N(O)CCCCCN [N-[5-[[4-[5-[acetyl(hydroxy)amino]pentylamino]-4-oxobutanoyl]-hydroxyamino]pentyl]-N''-(5-aminopentyl)-N''-hydroxybutanediamide;methanesulfonic acid] |
